“Also recorded” adds a separate entry of the source.
Tests used:
[1] = system: MLL-AF9 translocated leukemia; assay: In vivo treatment of leukemic mice (MA9 transplanted); design: species or system mouse; conditions: daily injection of 1.8 mg in sun flower oil, mice transplanted with MA9 cells
Method: 1×10^4 leukemic cells were injected into the tail vein of sub-lethally irradiated (450 rad) BL6.SJL mice. Two days after transplantation the mice were injected with 1.8 mg “Compound 12” dissolved into 200 μL sun flower oil or sun flower oil alone (control). A total of 26 mice were used in the experiment, where 14 received oil alone and 12 received “Compound 12”.
The injections were continued daily for a period of 20 days.

WNK1 (P-OXSR1) = assay: Western blot of Oxsr1 and P-Oxsr1 in MA9 cells; format: cell-based, mouse; conditions: MA9 cells treated for 3 hours
Method: Murine MLL-AF9 transformed leukemic cells (MA9) were treated for 3 hours with different concentrations of “Compound 12”. Treated cells were counted and lysed in 1×LSB buffer and an equal to 100.000 cells were loaded on each lane of a 10% SDS-Page gel.
Gels were transferred to nitrocellulose membranes probed with sheep-anti-OXSR1 [S336B] or sheep-anti-P-OXSR1 [S688B] (both from University of Dundee). Binding of the primary antibody was on detected light sensitive films, using rabbit peroxidase conjugated anti-sheep IgG antibody (1 in 30.000 dilution, Abcam: ab6900) followed by enhanced chemiluminescence (Pierce ECL Plus, ThermoFisher: 34577) (FIG. 4B).

[2] = 30 mg/kg single oral dose; cited from earlier work
blood pressure = conditions: 30 mg/kg single oral dose, rodent hypertension models; cited from earlier work
MEFs = assay: CellTiter-Glo viability assay, mouse embryonic fibroblasts; format: cell-based
Method: (§1) Dose-response curves were generated using the CellTiter-Glo® assay (Promega: G7570). Cells were seeded in triplicate in round bottom 96 well plates in the presence of varying concentrations of “Compound 12”. After 72 hours the number of viable cells in the cultures were measured using the CellTiter-Glo®. IC50 values were calculated using the Prism software (GraphPad: Prism 7 for Mac OS X).

MA9 cells [3] = assay: CellTiter-Glo viability assay, MA9 cells; format: cell-based; conditions: Mus musculus, 72 hours
Method: as §1

blood cancer cell lines = assay: CellTiter-Glo viability assay, human cell lines; format: cell-based; conditions: FIG. 5
Method: Dose-response curves were generated using the CellTiter-Glo® assay (Promega: G7570). BJ-tert, U2OS, MOLM13, THP1, Monomac, MMS1, KMS18, KMS11, MSTo, and H226, cells were seeded in triplicate in round bottom 96 well plates in the presence of varying concentrations of “Compound 12”. After 72 hours the number of viable cells in the cultures were measured using the CellTiter-Glo®. IC50 values were calculated using the Prism software (GraphPad: Prism 7 for Mac OS X). The experiment show the IC50 values for the different human cell lines (FIG. 5).

[4] = Yamada et al., 2017; cited from earlier work
MA9 cells [5] = assay: Growth curves of MA9 cells; format: cell-based, mouse; conditions: varying concentrations, growth curve, FIG. 4C
Method: MA9 cell cultures were grown in triplicate in 24 well plates in the presence of varying concentrations of “Compound 12”. Cells were plated with a density of 50.000 cells per well after which they were counted and replated every 3 days.

phosphorylated OXSR1 = conditions: in cells, Yamada et al., 2017; cited from earlier work

## [2H]C([2H])([2H])Nc1nc(-c2cc(C(=O)N3CCN(Cc4ccc(Cl)cc4)CC3)c(Cl)cn2)cs1 [Compound 12, (5-Chloro-2-(2-((methyl-d3)amino)thiazol-4-yl)-pyridin-4-yl)(4-(4-chlorobenzyl)piperazin-1-yl)methanone]
[1]
  Lifespan of leukemic mice: significantly extend the life-time; also recorded: increases their lifespan; also recorded: increased lifespan
WNK1 (P-OXSR1)
  Inhibition of WNK1 (phosphorylated OXSR1, Western blot): inhibits WNK1 in leukemic cells
[2]
  Concentration: 2000 nM
Blood pressure
  Blood pressure: some reduction in blood pressure
MEFs; Mus musculus, Fibroblast, viability, 72 hours, CellTiter-Glo
  IC50: > 20 µM
MEFs; viability assay, FIG. 4A
  IC50 in MEFs compared with MA9 cells: significantly higher
MA9 cells [3]
  IC50: ~1 µM
Blood cancer cell lines; human cell lines vs BJ tert
  Sensitivity of blood cancer cell lines compared with diploid fibroblasts: significantly more sensitive
Blood cancer cell lines; viability, 72 hours, human cell lines, read-out: IC50 of most of the blood cancer cell lines
  IC50: ~1 µM
[4]
  Toxicity in mice: low toxicity
MA9 cells [5]
  Growth / proliferation of MA9 cells: dose-dependent inhibition; also recorded: inhibits growth; also recorded: attenuated growth
Phosphorylated OXSR1
  EC50: 0.59 µM
